Consider 13 molecules from patent US6972287B1, “Method of inhibiting amyloid protein aggregation and imaging amyloid deposits” (Pfizer Inc., priority 1999, dated 2005).

Values joined by “and” are separate entries in the source; they are usually repeats but may differ in a detail not shown here. Identical values can stand only once.

Series [1] has as its target T1, Aβ (1-40) peptide (Homo sapiens, UniProt P05067).
T1 construct: 10 μL 0.5 mg/mL Aβ (1-40) peptide in 20% HFIP
As to the kind of experiment: BAPA (Beta-Amyloid Peptide Aggregation, pH 6.0, filtration). In kind it is biochemical. Particulars: Aβ (1-40) 33 μM, pH 6.0, 2 to 4 hours at room temperature; replicate values; letter = synthetic lot. In outline:
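Aggregation of human Aβ (1-40) peptide was measured in an endpoint filtration assay. The peptide was first reduced to monomer with hexafluoroisopropanol (HFIP), then used at 33 μM so it would aggregate at pH 6.0, and incubated for 2 to 4 hours at room temperature. Filter plates were washed with 100 μL phosphate buffer, impregnated with Meltilex, and counted on a Microbeta counter with background correction.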

For series [2], the target named is T2, Aβ (1-42) (Homo sapiens, UniProt P05067).
T2 construct: Required Aβ (1-42) (California Peptide) was dried from its hexafluoroisopropanol (HFIP) stock solution; purchased California Peptide
Nature of the series: BATYM assay (Aβ (1-42) aggregation, Thioflavin T fluorescence). In kind it is biochemical. Conditions: Aβ 1-42 final concentration 100 μM, 37° C., 1 day, letter = synthetic lot. In a few lines:
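Aβ (1-42) (100 μM final, PBS pH 7.4 from DMSO) incubated with compound at 37° C. for 1 day. Aggregation read by ThT (30 μM, glycine-NaOH pH 8.5) fluorescence, ex 440/em 485 nm; inhibition as fluorescence reduction corrected for compound-alone signal, IC50 by curve fitting from two experiments in triplicate.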

Series [3] has as its target T3, Aβ(1-40) (Homo sapiens, UniProt P05067).
T3 construct: […]; purchased Bachem, Torrance, Calif
As to the kind of experiment: BASST (Beta-Amyloid Self-Seeding, Thioflavin T), inhibitors of self-seeded amyloid fibril growth. Conditions: 30 μM soluble Aβ(1-40), 37° C., 3 to 5 hours, thioflavin T fluorescence; replicate values; letter = synthetic lot; read-out: BASST (IC50 = μM). In kind it is biochemical. In outline:
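Self-seeded Aβ(1-40) fibril growth was run in 50 mM sodium phosphate pH 7.5, 100 mM NaCl, 0.02% NaN3, 1 M urea. Compounds were tested in 3-fold serial dilutions (top 100 μM final): 10 min on ice, then 3–5 h at 37 °C. Fibrils were read by 5 μM thioflavin T fluorescence (ex 440/em 485 nm).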

The target in series [4] is T3, Aβ(1-40). As to the kind of experiment: BASSR (Beta-Amyloid Self-Seeding Radioassay), inhibitors of self-seeded amyloid fibril growth. In kind it is biochemical. Particulars: 30 μM soluble Aβ(1-40) + 125I-labeled Aβ(1-40), 37° C., 3 to 5 hours; replicate values; letter = synthetic lot; ppt = precipitate; V-shaped = inhibition followed by precipitation. In outline:
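Self-seeded growth of ^125I-labeled Aβ(1-40) fibrils in 50 mM sodium phosphate pH 7.5, 100 mM NaCl, 0.02% NaN3, 1 M urea; compound (3-fold dilutions from 100 μM final) preincubated 10 min on ice, then 3–5 h at 37° C. Fibrils collected by vacuum filtration on 0.2 μm filters and counted for radioactivity.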

T2 sequence (P05067 672-713 limits assumed): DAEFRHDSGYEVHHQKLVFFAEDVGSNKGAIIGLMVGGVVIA
T1 sequence (P05067 672-711 limits assumed): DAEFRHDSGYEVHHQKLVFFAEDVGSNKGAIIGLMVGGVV
T3 sequence (P05067 672-711 limits assumed): as above

Regarding `CN(C)c1ccc(Nc2ccc(CCc3ccc(Cl)c(Cl)c3)cc2)c(C(=O)O)c1` [Example 80, 2-{4-[2-(3,4-Dichloro-phenyl)-ethyl]-phenylamino}-5-dimethylamino-benzoic acid], the melting point (as a rule, the temperature, or range, at which the solid turns liquid) was 75 to 80 °C. For the same molecule, the IC50 – broadly, the midpoint of a concentration-inhibition curve – in series [1] was above 60 µM. Further, the IC50 in series [2] was 24.8 µM. The IC50 in series [3] stood at 4 µM. Moreover, in series [4], the IC50 is above 100 µM.
In the case of `O=C(O)c1ccccc1Nc1ccc(CCc2cc(Cl)cc(Cl)c2)cc1` [Example 81, 2-{4-[2-(3,5-Dichloro-phenyl)-ethyl]-phenylamino}-benzoic acid], the melting point fell in the range of 191 to 194 °C. The same molecule displayed an IC50 in series [1] of 73 µM. This molecule also gave an IC50 in series [2] of 48.4 µM. The IC50 in series [3] was 15 µM. The IC50 in series [4] is above 100 µM.
The corresponding values for `O=C(O)c1ccccc1Nc1ccc(CCc2ccc(F)c(F)c2)cc1` [Example 122, 2-{4-[2-(3,4-Difluoro-phenyl)-ethyl]-phenylamino}-benzoic acid] are 184 to 185 °C, above 60 µM, above 100 µM, 2 µM and above 100 µM.
The matching figures for `COc1ccc(CCc2ccc(Nc3ccccc3C(=O)O)cc2)c(OC)c1` [Example 125, 2-{4-[2-(2,4-Dimethoxy-phenyl)-ethyl]-phenylamino}-benzoic acid]: 180 to 181 °C, 80 µM, above 100 µM, 10 µM and 82 µM.
`O=C(O)c1ccccc1Nc1ccc(CCc2ccccc2Cl)cc1` [Example 126, 2-{4-[2-(2-Chloro-phenyl)-ethyl]-phenylamino}-benzoic acid] gave a melting point of 140 to 143 °C. Moreover, the IC50 in series [1] is 63 µM and > 60 µM. Further, the IC50 in series [2] was 84 µM and 73.9 µM. The IC50 in series [3] is 4 µM (2×) and 5 µM and 10 µM. Further, the IC50 in series [4] is > 100 µM (2×) and 30 µM.
The molecule `O=C(O)c1ccccc1Nc1ccc(CCc2ccccc2O)cc1` [Example 127, 2-{4-[2-(2-Hydroxy-phenyl)-ethyl]-phenylamino}-benzoic acid] showed a melting point of 218 to 219 °C. This molecule also gave an IC50 in series [1] of 67 µM. For the same molecule, the IC50 in series [2] was above 100 µM. In series [3], the IC50 turned out to be 10 µM. Besides, in series [4], the IC50 was above 100 µM.
In turn, `O=C(O)c1cccc(Nc2ccc(CCc3ccc(Cl)c(Cl)c3)cc2)c1` [Example 131, 3-{4-[2-(3,4-Dichloro-phenyl)-ethyl]-phenylamino}-benzoic acid] displayed a melting point of 137 to 138 °C. This molecule also yielded an IC50 in series [1] above 60 µM. In addition, in series [2], the IC50 worked out at 93.5 µM. Besides, in series [3], the IC50 was determined as 10 µM. Also, in series [4], the IC50 was above 100 µM.
The matching figures for `COc1cc(CCc2ccc(Nc3ccccc3C(=O)O)cc2)cc(OC)c1OC` [Example 133, 2-{4-[2-(3,4,5-Trimethoxy-phenyl)-ethyl]-phenylamino}-benzoic acid]: 146 to 147 °C, above 60 µM, above 100 µM, above 100 µM and above 100 µM.
The corresponding values for `O=C(O)c1ccccc1Nc1ccc(CCc2ccc(Oc3ccccc3)cc2)cc1` [Example 134, 2-{4-[2-(4-Phenoxy-phenyl)-ethyl]-phenylamino}-benzoic acid] are 153 to 154 °C, above 60 µM, 36.5 µM, 2 µM and above 100 µM.
The corresponding values for `O=C(O)c1ccccc1Nc1ccc(CCCCCc2ccc(Cl)c(Cl)c2)cc1` [Example 135, 2-{4-[5-(3,4-Dichloro-phenyl)-pentyl]-phenylamino}-benzoic acid] are 106 to 108 °C, above 60 µM, 31.2 µM, 1.2 µM and above 100 µM.
Molecule `O=C(O)c1ccc(Nc2ccc(CCc3ccc(Cl)c(Cl)c3)cc2)c(C(=O)O)c1` [Example 144, 4-{4-[2-(3,4-Dichloro-phenyl)-ethyl]-phenylamino}-isophthalic acid] gave a melting point of 264 to 266 °C. Moreover, the IC50 in series [1] worked out at 114 µM. Further, the IC50 in series [2] was above 100 µM. Besides, the IC50 in series [3] came to 40 µM. The IC50 in series [4] was 15 µM and 25 µM.
As to `O=C(O)c1ccc(C(F)(F)F)cc1Nc1ccc(CCc2ccc(Cl)c(Cl)c2)cc1` [Example 145, 2-{4-[2-(3,4-Dichloro-phenyl)-ethyl]-phenylamino}-4-trifluoromethyl-benzoic acid], the melting point is 134 to 136 °C. The molecule further had an IC50 in series [1] of 9 µM. Besides, in series [2], the IC50 came out at 56.8 µM. For the same molecule, the IC50 in series [3] worked out at 4 µM. Besides, the IC50 in series [4] is 10 µM and 40 µM and 30 µM.
`CN(C)c1ccc(N(C)c2ccc(CCc3ccc(Cl)c(Cl)c3)cc2)c(C(=O)O)c1` [Example 147, 2-({4-[2-(3,4-Dichloro-phenyl)-ethyl]-phenyl}-methyl-amino)-5-dimethylamino-benzoic acid] showed a melting point of 128 to 131 °C. This molecule showed an IC50 in series [1] above 60 µM. This molecule also showed an IC50 in series [2] of 93.4 µM. Also, the IC50 in series [3] is 10 µM. The IC50 in series [4] is above 100 µM.
